Measured values as given in patent US20260055097A9, “NRF2 PROTEIN DEGRADERS” (Ganymede Oncology, Inc., priority 2022, published 2026).

Assays:
Format in all cases: cell-based
A549 = assay: Cancer cell viability, A549 (CellTiter-Glo); conditions: Homo sapiens, 72 h, A549 cells, 3 days, read-out: Cellular IC50 (μM) A549
Method in brief: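 A549 and/or LK-2 lung carcinoma cells seeded overnight (20 K/mL A549; 35 K/mL LK-2), then exposed to compound for 3 days. Viability read as CellTiter-Glo luminescence after 15 min lysis; data fitted to curves.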

Nrf2 [1] = molecular target: T1, Nrf2 (Homo sapiens, UniProt Q16236); assay: Protein degradation assay in huH1 cells by Western blot; parameters: tested for protein degradation in huH1 cells; host or cells: huH1 (Huh1) human hepatoma cells
T1 sequence (Q16236 1-605): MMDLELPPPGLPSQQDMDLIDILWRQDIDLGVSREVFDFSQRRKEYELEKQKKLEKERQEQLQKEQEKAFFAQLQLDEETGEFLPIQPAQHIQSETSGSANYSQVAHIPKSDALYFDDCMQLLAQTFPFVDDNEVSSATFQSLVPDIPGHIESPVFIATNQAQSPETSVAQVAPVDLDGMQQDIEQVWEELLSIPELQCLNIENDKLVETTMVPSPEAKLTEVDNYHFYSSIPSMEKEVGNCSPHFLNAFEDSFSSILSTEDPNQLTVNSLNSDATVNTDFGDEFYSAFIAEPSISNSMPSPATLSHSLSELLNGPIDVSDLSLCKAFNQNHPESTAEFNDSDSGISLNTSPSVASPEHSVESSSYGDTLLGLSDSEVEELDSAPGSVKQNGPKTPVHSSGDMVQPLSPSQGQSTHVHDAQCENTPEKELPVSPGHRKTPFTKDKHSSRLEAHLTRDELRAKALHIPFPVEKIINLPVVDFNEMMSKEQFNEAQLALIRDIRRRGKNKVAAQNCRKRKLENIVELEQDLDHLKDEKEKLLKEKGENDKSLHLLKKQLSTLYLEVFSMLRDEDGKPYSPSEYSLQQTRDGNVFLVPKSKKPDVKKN
Method: Representative Compounds of the Disclosure were tested for protein degradation in huH1 cells (Vendor: JCRB: Cat #JCRB0199; Description: Human hepatoma) by Western blot analysis according to the following general protocol.
Day 0: Plated the Huh1 cells into 10-cm dishes (1.5×10^6/dish)
Day 1: Treated the cells with compounds at five concentrations, e.g., 0.01 μM, 0.04 μM, 0.11 μM, 0.33 μM and 1 μM; or 0.4 μM, 1.1 μM, 3.3 μM, 10 μM, and 30 μM.
Day 4: Harvested the cell pellets, spilt 1/3 of the pellet to extract RNA by Nucleospin RNA plus kit and measure Nrf2 and GPX2 by RT-PCR, the remaining 2/3 of the pellet to run Western blot analysis.
• a) Cell samples were lysed with lysis buffer (1×Cell lysis buffer added Protease inhibitor and phosphatase inhibitor) on ice for 5˜10 min and spun at 15,000 rpm in an Eppendorf microfuge for 15 min at 4° C. • b) The protein supernatant was collected in a new 1.5 ml tube and the protein concentrations were determined by the Pierce BCA kit (Thermo #23225). • c) Mixed protein sample with 5×SDS-PAGE loading buffer. • d) Boiled for 5 min. • e) Cooled at RT or on ice for 5 min. • f) Flash spun to bring down condensation prior to loading gel.
• a) After flash spinning the samples, 20 μg protein were loaded into the wells. • b) Using SDS-PAGE running buffer. • c) Run with Constant Voltage (70 V) for 1.5-2 hr. Membrane transfer • a) Assembled “sandwich” for Invitrogen iBlot. • b) Transferred for 9 min using P0 program. • c) Immersed membrane in Odyssey blocking buffer or 5% BSA for at least 1 hr.
• a) Incubated with 1st Antibody 1:500 diluted in blocking buffer overnight at 4° C. • b) Washed 4×15 min with 0.05-0.1% Tween 20 in TBS. • c) Incubated with secondary antibody 1:10K diluted in blocking buffer for at least 1 hr at RT. • d) Washed 3×15 min with 0.05-0.1% Tween 20 in TBS. • e) Detected with ODYSSEY (Li—COR) The results are provided in Table 5.

LK-2 = assay: Cancer cell viability, LK-2 (CellTiter-Glo); conditions: Homo sapiens, LK-2, 72 h, LK-2 cells, 3 days, read-out: Cellular IC50 (μM) LK-2
Method in brief: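 A549 and LK-2 cells were seeded overnight at 20 K/mL and 35 K/mL respectively. They were then exposed for 3 days to nine three-fold dilutions, typically from 30 µM final. Viability was read as CellTiter-Glo luminescence after a 15 min lysis.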

Nrf2 [2] = molecular target: T1, Nrf2; assay: Nrf2 degradation in A549 HiBiT-Nrf2 cells, Nano-Glo HiBiT lytic detection (HiBiT readout); parameters: host or cells: A549 HiBiT-Nrf2 cells (engineered line bought from Promega)
Method in brief: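 A549 HiBiT-Nrf2 cells seeded at 5,000 cells/well in Ham's F-12 with 10% FBS, then treated next day for 6 h and 20 h at 37 °C, 5% CO2. Nrf2 degradation read by Nano-Glo HiBiT lytic luminescence after 30 min at room temperature; staurosporine served as control.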

[3] = X marks the class 0.1-1 μM, read-out: DC50 huHI1 cells 0.1-1 μM

Row | SMILES | IC50 (A549) | DC50 (Nrf2 [1]; X marks the class >10 μM, read-out: DC50 huHI1 cells >10 μM) | IC50 (LK-2) | DC50 (Nrf2 [1]; [3]) | DC50 (Nrf2 [2]; 6 h, read-out: DC50 (nM) at 6 h) | DC50 (Nrf2 [2]; 20 h, read-out: DC50 (nM) at 20 h) | DC50 (Nrf2 [1]; X marks the class <100 nM, read-out: DC50 huHI1 cells <100 nM)
1 | Cc1ccccc1C(=O)N1CCc2cc(-c3nc(NC(=O)Cc4cccc(OCCOCCOCCNc5cccc6c5C(=O)N(C5CCC(=O)NC5=O)C6=O)c4)sc3C)ccc21 (centres unmarked) [Cpd. No. 2, 2-(3-(2-(2-(2-((2-(2,6-dioxopiperidin-3-yl)-1,3-dioxoisoindolin-4-yl)amino)ethoxy)ethoxy)ethoxy)phenyl)-N-(5-methyl-4-(1-(2-methylbenzoyl)indolin-5-yl)thiazol-2-yl)acetamide] | > 30 µM | > 10000 nM | – | – | – | – | –
2 | Cc1ccccc1C(=O)N1CCc2cc(-c3nc(NC(=O)Cc4cccc(OCCOCCOc5cccc6c5C(=O)N(C5CCC(=O)NC5=O)C6=O)c4)sc3C)ccc21 (centres unmarked) [Cpd. No. 12, 2-(3-(2-(2-((2-(2,6-dioxopiperidin-3-yl)-1,3-dioxoisoindolin-4-yl)oxy)ethoxy)ethoxy)phenyl)-N-(5-methyl-4-(1-(2-methylbenzoyl)indolin-5-yl)thiazol-2-yl)acetamide] | ~30 µM | – | 0.3 µM | 100 to 1000 nM | > 3000 nM | > 3000 nM | –
3 | Cc1ccccc1C(=O)N1CCc2cc(-c3nc(NC(=O)Cc4cccc(OCCOCCNc5cccc6c5C(=O)N(C5CCC(=O)NC5=O)C6=O)c4)sc3C)ccc21 (centres unmarked) [Cpd. No. 1, 2-(3-(2-(2-((2-(2,6-dioxopiperidin-3-yl)-1,3-dioxoisoindolin-4-yl)amino)ethoxy)ethoxy)phenyl)-N-(5-methyl-4-(1-(2-methylbenzoyl)indolin-5-yl)thiazol-2-yl)acetamide] | 0.1 µM | – | 0.04 µM | 100 to 1000 nM | – | – | –
4 | Cc1ccccc1C(=O)N1CCc2cc(-c3nc(NC(=O)Cc4cccc(OCCOCCOCCOc5cccc6c5C(=O)N(C5CCC(=O)NC5=O)C6=O)c4)sc3C)ccc21 (centres unmarked) [Cpd. No. 7, 2-(3-(2-(2-(2-((2-(2,6-dioxopiperidin-3-yl)-1,3-dioxoisoindolin-4-yl)oxy)ethoxy)ethoxy)ethoxy)phenyl)-N-(5-methyl-4-(1-(2-methylbenzoyl)indolin-5-yl)thiazol-2-yl)acetamide] | – | – | – | – | – | – | < 100 nM
